# Patent publication US20250171465A1, “AKT INHIBITORS” (Stablix, Inc., priority 2023, published 2025)
# How the values were obtained:
# Format in all cases: cell-based
# KU1919.1 = experiment: Cell Titer Glo (CTG) proliferation assay, KU1919; conditions: Homo sapiens, KU-19-19; KU1919.1 cells, 72.0 hrs.; read-out: AVE CTG Proliferation KU1919.1 72.0 hrs.
# Procedure, shortened: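 After overnight seeding at 37 °C, 5% CO2, cells were exposed to compound for 3 days. Viability read by CellTiter-Glo luminescence after 30 min at room temperature.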
# MDAMB231.1 = experiment: Cell Titer Glo (CTG) proliferation assay, MDA-MB-231; conditions: Homo sapiens, MDA-MB-231; MDAMB231.1 cells, 72 hrs.; read-out: AVE CTG Proliferation MDAMB231.1 72 hrs.
# Experimental: (§1) Seed cells in 40 μL of cell culture media into each well of 384-well cell culture plate, spin them at room temperature at 1,000 RPM for 1 minute and then transfer the plates into 37° C. 5% CO2 incubator overnight. Next day, treat cells with 40 nL of diluted compound and return to incubator. After compound treatment for 3 days, Add 30 μL of CellTiter-Glo reagent (Promega) into each well to be detected. Then place the plates at room temperature for 30 min followed by reading on EnVision. Inhibition activity calculated as % DMSO=100×(LumSample-Lum low control)/(Lum high control-Lum low control) where high control is from cells treated with 0.1% DMSO and Low control obtained from PBS only. Use XLFit (equation 201) to calculate IC50 (A+ ((B−A)/(1[…]((x/C)^D)))) where A: Bottom, B: Top, C: IC50, D: Slope.
# MDAMB468.1 = experiment: Cell Titer Glo (CTG) proliferation assay, MDA-MB-468; conditions: Homo sapiens, MDA-MB-468; MDAMB468.1 cells, 72.0 hrs.; read-out: AVE CTG Proliferation MDAMB468.1 72.0 hrs.
# Experimental: as §1
SMILES,IC50 (MDAMB231.1),IC50 (MDAMB468.1),IC50 (KU1919.1)
C[C@@H]1C[C@@H](O)c2ncnc(N3CCN(C(=O)[C@H](CNCCNC(=O)CN4CCC(CN5CCN(C(=O)[C@H](NC(=O)c6cccc(C7CCCN(C(=O)CNCc8ccc(F)cc8F)C7)c6)C6CCCCC6)CC5)CC4)c4ccc(Cl)cc4)CC3)c21 (stereo partly drawn) [Compound I-204],1 to 5 µM,1 to 5 µM,1 to 5 µM
CCc1cccc(-c2cc(F)c(C(=O)N3CCC(OC4CCN(CC(=O)NCCNC[C@@H](C(=O)N5CCN(c6ncnc7c6[C@H](C)C[C@H]7O)CC5)c5ccc(Cl)cc5)CC4)CC3)c(F)c2)c1 [Compound I-261],1 to 5 µM,1 to 5 µM,1 to 5 µM
C[C@@H]1C[C@@H](O)c2ncnc(N3CCN(C(=O)[C@H](CNCCNC(=O)CN4CCC(OC5CCN(C(=O)[C@H](NC(=O)c6cccc(C7CCCN(C(=O)CNC8CC8)C7)c6)C6CCCCC6)CC5)CC4)c4ccc(Cl)cc4)CC3)c21 (stereo partly drawn) [Compound I-209],5 to 10 µM,5 to 10 µM,5 to 10 µM
CCOc1cc(OC)ccc1CNCC(=O)N1CCCC(c2cccc(C(=O)N[C@@H](C(=O)N3CCN(CC4CCN(CC(=O)NCCNC[C@@H](C(=O)N5CCN(c6ncnc7c6[C@H](C)C[C@H]7O)CC5)c5ccc(Cl)cc5)CC4)CC3)C3CCCCC3)c2)C1 (stereo partly drawn) [Compound I-17],1 to 5 µM,1 to 5 µM,1 to 5 µM
CCc1cccc(-c2cnc(C(=O)N3CCN(CC4CCN(CC(=O)NCCNC[C@@H](C(=O)N5CCN(c6ncnc7c6[C@H](C)C[C@H]7O)CC5)c5ccc(Cl)cc5)CC4)CC3)c(N)c2)c1 [Compound I-213],1 to 5 µM,1 to 5 µM,1 to 5 µM
C[C@@H]1C[C@@H](O)c2ncnc(N3CCN(C(=O)C(CN4CCC(CN5CCN(C(=O)[C@H](NC(=O)c6cccc([C@@H]7CCCN(C(=O)C8CC8)C7)c6F)C6CCCCC6)CC5)CC4)c4ccc(Cl)cc4)CC3)c21 (stereo partly drawn) [Compound I-278],1 to 5 µM,1 to 5 µM,0.5 to 1 µM
NC1(C(=O)N[C@@H](CCN2CCN(C(=O)CN3CCC(OC4CCN(C(=O)[C@H](NC(=O)c5cccc(C6CCCN(C(=O)CNCc7ccc(F)cc7F)C6)c5)C5CCCCC5)CC4)CC3)CC2)c2ccc(Cl)cc2)CCN(c2ncnc3[nH]ccc23)CC1 (stereo partly drawn) [Compound I-258],1 to 5 µM,1 to 5 µM,0.5 to 1 µM
NC1(C(=O)N[C@@H](CCN2CCN(C(=O)CN3CCC(OC4CCN(C(=O)[C@H](NC(=O)c5cc(C6CN(C(=O)CNCc7ccc(F)cc7F)C6)ccc5F)C5CCCCC5)CC4)CC3)CC2)c2ccc(Cl)cc2)CCN(c2ncnc3[nH]ccc23)CC1 [Compound I-226],1 to 5 µM,1 to 5 µM,0.5 to 1 µM
C[C@@H]1C[C@@H](O)c2ncnc(N3CCN(C(=O)[C@H](CNCCNC(=O)CN4CCC(CN5CCN(C(=O)c6cccc(C7CCCN(C(=O)CNC8CC8)C7)c6)CC5)CC4)c4ccc(Cl)cc4)CC3)c21 (stereo partly drawn) [Compound I-206],> 10 µM,> 10 µM,> 10 µM
C[C@@H]1C[C@@H](O)c2ncnc(N3CCN(C(=O)C(CN4CCC(CN5CCN(C(=O)[C@H](NC(=O)c6cccc([C@H]7CCCN(C(=O)CNCc8ccc(F)cc8F)C7)c6)C6CCCCC6)CC5)CC4)c4ccc(Cl)cc4)CC3)c21 (stereo partly drawn) [Compound I-201],1 to 5 µM,1 to 5 µM,0.5 to 1 µM
N[C@@H](C(=O)N1CCC(OC2CCN(CC(=O)N3CCN(CC[C@H](NC(=O)C4(N)CCN(c5ncnc6[nH]ccc56)CC4)c4ccc(Cl)cc4)CC3)CC2)CC1)C1CCCCC1 [Compound I-235],> 10 µM,> 10 µM,> 10 µM
NC1(C(=O)N[C@@H](CCN2CCC(OC3CCN(C(=O)[C@H](NC(=O)c4cccc(C5CCCN(C(=O)CNCc6ccc(F)cc6F)C5)c4F)C4CCCCC4)CC3)CC2)c2ccc(Cl)cc2)CCN(c2ncnc3[nH]ccc23)CC1 (stereo partly drawn) [Compound I-279],1 to 5 µM,1 to 5 µM,0.5 to 1 µM
C[C@@H]1C[C@@H](O)c2ncnc(N3CCN(C(=O)C(CN4CCC(CN5CCN(C(=O)[C@H](NC(=O)c6cccc([C@H]7CCCN(C(=O)CNC8CC8)C7)c6)C6CCCCC6)CC5)CC4)c4ccc(Cl)cc4)CC3)c21 (stereo partly drawn) [Compound I-211],1 to 5 µM,1 to 5 µM,0.5 to 1 µM
NC1(C(=O)N[C@@H](CCN2CCN(C(=O)CN3CCC(OC4CCN(C(=O)[C@H](NC(=O)c5cccc(C6CCCN(C(=O)CNC7CC7)C6)c5)C5CCCCC5)CC4)CC3)CC2)c2ccc(Cl)cc2)CCN(c2ncnc3[nH]ccc23)CC1 (stereo partly drawn) [Compound I-259],1 to 5 µM,1 to 5 µM,1 to 5 µM
NC1(C(=O)N[C@@H](CCN2CCC(OC3CCN(C(=O)c4c(F)cc(-c5ccccc5)cc4F)CC3)CC2)c2ccc(Cl)cc2)CCN(c2ncnc3[nH]ccc23)CC1 [Compound I-281],< 0.5 µM,1 to 5 µM,1 to 5 µM
NC1(C(=O)N[C@@H](CCN2CCC(OC3CCN(C(=O)c4cccc(C5CCCN(C(=O)C6CC6)C5)c4)CC3)CC2)c2ccc(Cl)cc2)CCN(c2ncnc3[nH]ccc23)CC1 (stereo partly drawn) [Compound I-248],5 to 10 µM,5 to 10 µM,1 to 5 µM
CCc1cccc(-c2cnc(C(=O)N3CCN(CC4CCN(CC(=O)NCCNC[C@@H](C(=O)N5CCN(c6ncnc7c6[C@H](C)C[C@H]7O)CC5)c5ccc(Cl)cc5)CC4)CC3)c(NC(=O)OC(C)(C)C)c2)c1 [Compound I-306],1 to 5 µM,1 to 5 µM,1 to 5 µM
C[C@@H]1C[C@@H](O)c2ncnc(N3CCN(C(=O)[C@H](CNCCNC(=O)CN4CCC(OC5CCN(C(=O)[C@H](NC(=O)c6cccc(C7CCCN(C(=O)CNCc8ccc(F)cc8F)C7)c6)C6CCCCC6)CC5)CC4)c4ccc(Cl)cc4)CC3)c21 (stereo partly drawn) [Compound I-208],1 to 5 µM,1 to 5 µM,1 to 5 µM

# More lines, main results first:
IC50 (MDAMB231.1),IC50 (MDAMB468.1),SMILES,IC50 (KU1919.1)
5 to 10 µM,5 to 10 µM,CCc1cccc(-c2cnc(C(=O)N3CCC(OC4CCN(CC(=O)NCCNC[C@@H](C(=O)N5CCN(c6ncnc7c6[C@H](C)C[C@H]7O)CC5)c5ccc(Cl)cc5)CC4)CC3)c(NC(C)=O)c2)c1 [Compound I-196],1 to 5 µM
> 10 µM,1 to 5 µM,CC(C)(C)OC(=O)N1CCC(OC2CCN(CC(=O)N3CCN(CC[C@H](NC(=O)C4(N)CCN(c5ncnc6[nH]ccc56)CC4)c4ccc(Cl)cc4)CC3)CC2)CC1 [Compound I-315],1 to 5 µM
5 to 10 µM,1 to 5 µM,CC(C)(C)OC(=O)N[C@@H](C(=O)N1CCN(CC2CCN(CC(=O)N3CCN(CC[C@H](NC(=O)C4(N)CCN(c5ncnc6[nH]ccc56)CC4)c4ccc(Cl)cc4)CC3)CC2)CC1)C1CCCCC1 [Compound I-310],1 to 5 µM
1 to 5 µM,1 to 5 µM,NC1(C(=O)N[C@@H](CCN2CCC(OC3CCN(C(=O)[C@H](NC(=O)c4cccc(C5CCCN(C(=O)CNC6CC6)C5)c4F)C4CCCCC4)CC3)CC2)c2ccc(Cl)cc2)CCN(c2ncnc3[nH]ccc23)CC1 (stereo partly drawn) [Compound I-283],1 to 5 µM
> 10 µM,> 10 µM,"CC(C)NC[C@@H](C(=O)N1CCN(c2ncnc3c2[C@H](C)C[C@H]3O)CC1)c1ccc(Cl)cc1 [GDC-0068, Ipatasertib, reference compound]",> 10 µM
1 to 5 µM,1 to 5 µM,CC1(C(=O)N2CCCC(c3cccc(C(=O)N[C@@H](C(=O)N4CCC(OC5CCN(CC[C@H](NC(=O)C6(N)CCN(c7ncnc8[nH]ccc78)CC6)c6ccc(Cl)cc6)CC5)CC4)C4CCCCC4)c3F)C2)CC1 (stereo partly drawn) [Compound I-282],1 to 5 µM
1 to 5 µM,1 to 5 µM,NC1(C(=O)N[C@@H](CCN2CCN(C(=O)CN3CCC(OC4CCN(C(=O)[C@H](NC(=O)c5ccc(C6CN(C(=O)CNCc7ccc(F)cc7F)C6)cc5)C5CCCCC5)CC4)CC3)CC2)c2ccc(Cl)cc2)CCN(c2ncnc3[nH]ccc23)CC1 [Compound I-230],1 to 5 µM
1 to 5 µM,1 to 5 µM,CCc1cccc(-c2cnc(C(=O)N3CCN(CC45CCC(NCC(=O)NCCNC[C@@H](C(=O)N6CCN(c7cccc8c7[C@H](C)C[C@H]8O)CC6)c6ccc(Cl)cc6)(CC4)CO5)CC3)c(NC(=O)OC(C)(C)C)c2)c1 [Compound I-305],1 to 5 µM
